From patent publication US9340537B2, “Benzamide derivatives for inhibiting the activity of ABL1, ABL2 and BCR-ABL1” (NOVATIS AG, priority 2012, dated 2016)

Experiments:
[1] = system: Ba/F3-BCR-ABL1-T315I cells; experiment: Proliferation assay Ba/F3-BCR-ABL1-T315I cells; type: cell-based, murine; conditions: Mus musculus; 48 hours, Britelite luminescence; read-out: Ba/F3-BCR-ABL1-T315I IC50
Text: (§1) The murine bone marrow-derived cell line Ba/F3 was used to generate the appropriate cell line models. […] These cells are referred to as Ba/F3-WT.
(§2) To generate Ba/F3 cells that depend on BCR-ABL1 expression for growth and survival, Ba/F3 cells were engineered to express BCR-ABL1 using retroviral transduction with a MSCV based retroviral vector containing a p210 BCR-ABL1expression cassette. […] These cells are referred to as Ba/F3-BCR-ABL-WT. […] These cells are referred to as Ba/F3-BCR-ABL-T315I.
(§3) Ba/F3-WT cells were maintained in RPMI1640 media with L-glutamine, HEPES (Lonza), 10% FBS (Gibco) and 5 ng/ml IL-3 (Calbiochem). Ba/F3-BCR-ABL1-WT cells and Ba/F3-BCR-ABL1-T315I cells were maintained in RPMI1640 media with L-glutamine, HEPES (Lonza) and 10% FBS (Gibco).
(§4) For each cell line, the cell density was adjusted to 50 000 cells/mL and 50 μL (2500 cells) added per well of a 384-well assay plate.
(§5) Test compounds were resuspended in DMSO at a concentration of 10 mM. A serial three-fold dilution of each compound with DMSO was performed in 384-well plates using the Janus Liquid Dispenser (PerkinElmer). Compound was delivered to the assay plates containing 2500 cells in a 50 μL volume via Acoustic delivery from an ATS-100 (EDC).
(§6) Cells were incubated at 37° C. in a humidified environment with 5% carbon dioxide for 48 hours. Britelite plus solution (Perkin Elmer) was prepared according to the manufacturer's instructions and 25 μL added to each well of the assay plate. […] The degree of luminescence correlates with the number of cells in each well. The effect of each inhibitor concentration can therefore be calculated and IC50 values generated.

ABL1 (64-515) [2] = target: T1, ABL1 (64-515) (Homo sapiens (Human), UniProt P00519); experiment: Caliper ABL1 (64-515) microfluidic mobility shift kinase assay; conditions: read-out: Caliper ABL1 (64-515) IC50
Ba/F3-BCR-ABL1-WT cells = experiment: Proliferation assay Ba/F3-BCR-ABL1-WT cells; type: cell-based, murine; conditions: Mus musculus; 48 hours, Britelite luminescence; read-out: Ba/F3-BCR-ABL1-WT IC50
Text: as §1, §2, §3, §4, §5, §6

ABL1 (64-515) [3] = target: T1, ABL1 (64-515); experiment: Radio ABL1 (64-515) radiometric filter-binding kinase assay; type: biochemical; conditions: 20 μM ATP
Experimental: Pre-incubation of enzyme with compounds (when stated) was performed by exposing the enzyme to compounds prior to addition of the substrate mixture (ATP and/or peptide substrate). […] Filter-plates were washed 3× with 0.5% H3PO4, followed by addition of 30 μL scintillation cocktail (Microscint, Perkin Elmer) per well and then analysed in a TopCount NXT scintillation counter (Perkin Elmer). Results were expressed as IC50 values.

BCR-ABL1+KCL-22 cells = experiment: Acquired resistance in BCR-ABL1+KCL-22 cells in vitro; type: cell-based; conditions: single agent, cells treated every 3-4 days

T1 sequence (P00519 64-515): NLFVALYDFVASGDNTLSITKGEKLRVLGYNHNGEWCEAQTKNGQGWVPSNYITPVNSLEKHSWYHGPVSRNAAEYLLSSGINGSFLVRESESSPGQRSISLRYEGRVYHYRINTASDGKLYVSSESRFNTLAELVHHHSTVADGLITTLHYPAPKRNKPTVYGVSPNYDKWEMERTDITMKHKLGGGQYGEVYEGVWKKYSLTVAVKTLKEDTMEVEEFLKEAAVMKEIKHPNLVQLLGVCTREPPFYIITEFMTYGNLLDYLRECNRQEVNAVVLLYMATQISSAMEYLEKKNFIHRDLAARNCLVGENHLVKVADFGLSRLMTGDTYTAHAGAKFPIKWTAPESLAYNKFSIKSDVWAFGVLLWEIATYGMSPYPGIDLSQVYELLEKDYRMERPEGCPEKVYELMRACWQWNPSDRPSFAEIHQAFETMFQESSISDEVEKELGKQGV

| Compound | IC50 [1] [nM] | IC50 (ABL1 (64-515) [2]) [nM] | IC50 (Ba/F3-BCR-ABL1-WT cells) [nM] | IC50 (ABL1 (64-515) [3]) [nM] | time until acquired resistance (BCR-ABL1+KCL-22 cells) [days] |
| --- | --- | --- | --- | --- | --- |
| N#Cc1ccc(-c2cc(C(=O)Nc3ccc(OC(F)(F)Cl)cc3)cnc2N2CC[C@@H](O)C2)[nH]1 [Example 45, (R)—N-(4-(Chlorodifluoromethoxy)phenyl)-5-(5-cyano-1H-pyrrol-2-yl)-6-(3-hydroxypyrrolidin-1-yl)nicotinamide] | 13 | 0.7 | 0.6 | 4 |  |
| O=C(Nc1ccc(OC(F)(F)Cl)cc1)c1cnc(N2CC[C@@H](O)C2)c(-c2ccc[nH]2)c1 [Example 22, (R)—N-(4-(Chlorodifluoromethoxy)phenyl)-6-(3-hydroxypyrrolidin-1-yl)-5-(1H-pyrrol-2-yl)nicotinamide] | 27 | < 0.13 | 0.8 | 2.4 |  |
| O=C(Nc1ccc(OC(F)(F)F)cc1)c1cnc(N2CC[C@@H](O)C2)c(-c2ccc[nH]2)c1 [Example 6, (R)-6-(3-Hydroxypyrrolidin-1-yl)-5-(1H-pyrrol-2-yl)-N-(4-(trifluoromethoxy)phenyl)nicotinamide] | 106 | 1.3 | 4.5 | 9 |  |
| O=C(Nc1ccc(OC(F)(F)Cl)cc1)c1cnc(N2CCCC3(CCN3)C2)c(-c2ccn[nH]2)c1 (stereo not drawn) [Example 61, N-(4-(Chlorodifluoromethoxy)phenyl)-5-(1H-pyrazol-5-yl)-6-(1,6-diazaspiro[3.5]nonan-6-yl)nicotinamide] | 1040 | 4.5 | 49.3 | 3 |  |
| Cc1cn(-c2cc(NC(=O)c3ccc(C)c(Nc4nccc(-c5cccnc5)n4)c3)cc(C(F)(F)F)c2)cn1 [nilotinib] |  |  |  |  | 18 to 21 |
| N#Cc1ccc(-c2cc(C(=O)Nc3ccc(OC(F)(F)F)cc3)cnc2N2CC[C@@H](O)C2)[nH]1 [Example 30, (R)-5-(5-Cyano-1H-pyrrol-2-yl)-6-(3-hydroxypyrrolidin-1-yl)-N-(4-(trifluoromethoxy)phenyl)nicotinamide] | 22 | 0.7 | 1.1 | 6 |  |
| O=C(Nc1ccc(OC(F)(F)Cl)cc1)c1ccc(N2C[C@H](O)[C@@H](O)C2)c(-c2ccn[nH]2)c1 [Example 77, N-(4-(Chlorodifluoromethoxy)phenyl)-4-((3S,4S)-3,4-dihydroxypyrrolidin-1-yl)-3-(1H-pyrazol-5-yl)benzamide] | 75 | 0.7 | 4.1 |  |  |
| O=C(Nc1ccc(OC(F)(F)F)cc1)c1cnc(N2CC[C@@H](O)C2)c(-c2ccoc2)c1 [Example 7, (R)-5-(Furan-3-yl)-6-(3-hydroxypyrrolidin-1-yl)-N-(4-(trifluoromethoxy)phenyl)nicotinamide] | 674 |  | 5.9 | < 3 |  |
| O=C(Nc1ccc(OC(F)(F)F)cc1)c1cnc(N2CC[C@@H](O)C2)c(-c2ncc[nH]2)c1 [Example 70, (R)-6-(3-Hydroxypyrrolidin-1-yl)-5-(1H-imidazol-2-yl)-N-(4-(trifluoromethoxy)phenyl)nicotinamide] | 106 | 6.4 | 5.8 |  |  |
| O=C(Nc1ccc(OC(F)(F)Cl)cc1)c1cnc(N2CC[C@@H](O)C2)c(-c2ncc[nH]2)c1 [Example 71, (R)—N-(4-(Chlorodifluoromethoxy)phenyl)-6-(3-hydroxypyrrolidin-1-yl)-5-(1H-imidazol-2-yl)nicotinamide] | 8 | 0.4 | 1.1 |  |  |
| CC1(O)CN(c2ncc(C(=O)Nc3ccc(OC(F)(F)F)cc3)cc2-c2ncc[nH]2)C1 [Example 69, 6-(3-Hydroxy-3-methylazetidin-1-yl)-5-(1H-imidazol-2-yl)-N-(4-(trifluoromethoxy)phenyl)nicotinamide] | 395 | 0.2 | 24.3 | 0.2 |  |
| O=C(Nc1ccc(OC(F)(F)Cl)cc1)c1cnc(N2C[C@H](O)[C@@H](F)C2)c(-c2ccn[nH]2)c1 (relative stereo) [Example 75, N-(4-(Chlorodifluoromethoxy)phenyl)-6-(trans-3-fluoro-4-hydroxypyrrolidin-1-yl)-5-(1H-pyrazol-5-yl)nicotinamide] | 17 | 0.5 | 1.2 | 3 |  |
| CN(C)C(=O)c1ccc(-c2cc(C(=O)Nc3ccc(OC(F)(F)Cl)cc3)cnc2N2CC[C@@H](O)C2)[nH]1 [Example 73, (R)—N-(4-(Chlorodifluoromethoxy)phenyl)-5-(5-(dimethylcarbamoyl)-1H-pyrrol-2-yl)-6-(3-hydroxypyrrolidin-1-yl)nicotinamide] | 7 | 1.1 | 0.4 |  |  |
| O=C(Nc1ccc(OC(F)(F)F)cc1)c1cnc(N2CC[C@@H](O)C2)c(-c2cncs2)c1 [Example 10, (R)-6-(3-Hydroxypyrrolidin-1-yl)-5-(thiazol-5-yl)-N-(4-(trifluoromethoxy)phenyl)nicotinamide] | 50 | 0.5 | 2.5 | 5.3 |  |
| Cc1cnc(-c2cc(C(=O)Nc3ccc(OC(F)(F)F)cc3)cnc2N2CC[C@@H](O)C2)[nH]1 [Example 72, (R)-6-(3-Hydroxypyrrolidin-1-yl)-5-(5-methyl-1H-imidazol-2-yl)-N-(4-(trifluoromethoxy)phenyl)nicotinamide] | 74 | 4.2 | 4.5 |  |  |
